Assays:
[1] = In vitro human microsomal stability assay; format: in vitro ADME
How it was run: (§1)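 Compounds were incubated at 37 °C with Sprague-Dawley rat liver microsomes (rat assay) or human liver microsomes (human assay) to measure metabolic stability. NADPH was added, including to the time-zero samples.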

[2] = In vitro rat microsomal stability assay; format: in vitro ADME, rat (Sprague-Dawley)
How it was run: as §1

human TRPV3 = molecular target: T1, human TRPV3 (Homo sapiens, UniProt Q8NET8); test: In vitro antagonism of recombinant human TRPV3 activation (FLIPR Tetra calcium assay, 2-APB as agonist); format: cell-based; conditions: HEK293 cells stably expressing human TRPV3; 2-APB 80 μM; range class; read-out: IC50 (reported range)
T1 construct: expressed in transfected cells
T1 sequence (Q8NET8 1-790): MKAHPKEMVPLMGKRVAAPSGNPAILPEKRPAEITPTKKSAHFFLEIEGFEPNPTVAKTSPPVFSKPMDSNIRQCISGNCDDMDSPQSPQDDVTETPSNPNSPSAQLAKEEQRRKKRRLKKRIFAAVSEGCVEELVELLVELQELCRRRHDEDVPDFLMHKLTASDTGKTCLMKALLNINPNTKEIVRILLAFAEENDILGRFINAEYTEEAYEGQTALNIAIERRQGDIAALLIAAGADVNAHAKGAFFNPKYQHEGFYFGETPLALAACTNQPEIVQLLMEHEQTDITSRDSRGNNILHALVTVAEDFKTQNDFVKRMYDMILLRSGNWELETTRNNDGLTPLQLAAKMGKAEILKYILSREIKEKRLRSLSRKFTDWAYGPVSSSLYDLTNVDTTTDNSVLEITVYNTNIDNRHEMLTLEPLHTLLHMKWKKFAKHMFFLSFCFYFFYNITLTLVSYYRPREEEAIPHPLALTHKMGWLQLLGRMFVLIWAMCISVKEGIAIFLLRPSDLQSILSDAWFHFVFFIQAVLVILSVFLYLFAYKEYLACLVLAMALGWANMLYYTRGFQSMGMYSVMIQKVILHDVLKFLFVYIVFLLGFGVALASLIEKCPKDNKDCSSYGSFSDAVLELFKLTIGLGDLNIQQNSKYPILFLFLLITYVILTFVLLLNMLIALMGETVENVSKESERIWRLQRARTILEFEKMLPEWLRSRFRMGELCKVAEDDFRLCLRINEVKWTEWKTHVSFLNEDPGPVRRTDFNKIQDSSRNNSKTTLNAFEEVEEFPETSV
How it was run: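 Readout is FLIPR fluorescence, max minus min as percent of uninhibited 2-APB response, giving IC50 (usually mean of ≥2 runs). Stable human TRPV3 HEK293 cells, Calcium-4 dye-loaded, got test compound then, three minutes later, 80 μM 2-APB (EC80); run length 10 min.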

[3] = 0.5 μM substrate, 0.25 mg/mL microsomal protein, pH 7.4, 37° C., NADPH, 30 minutes
[4] = Sprague-Dawley, rat, 0.5 h, 0.5 μM, pH 7.4

| Compound | HUMAN MICROSOMAL STABILITY (% REMAINING AFTER 30 MINUTES) [1, 3] [%] | RAT MICROSOMAL STABILITY (% REMAINING AFTER 30 MINUTES) [2, 3] [%] | IC50 (human TRPV3) [µM] | HUMAN MICROSOMAL STABILITY (% REMAINING AFTER 30 MINUTES) ([1]; human, 0.5 h, 0.5 μM, pH 7.4) [%] | RAT MICROSOMAL STABILITY (% REMAINING AFTER 30 MINUTES) [2, 4] [%] |
| --- | --- | --- | --- | --- | --- |
| CN1CCC(c2ccccc2OC(F)(F)F)(C(O)c2ccccn2)CC1 (stereo not drawn) [Example 149, {1-methyl-4-[2-(trifluoromethoxy)phenyl]piperidin-4-yl}(pyridin-2-yl)-methanol] | >85 | 62 | 5.1 to 20 | – | – |
| OC(c1ccccn1)C1(C2CCCCC2)CCC1 (stereo not drawn) [Example 162, (1-cyclohexylcyclobutyl)(pyridin-2-yl)methanol] | – | – | 1.1 to 5 | 0.02 | <0.01 |
| OC1CC(c2ccc(Cl)c(Cl)c2)(C(O)c2ncccn2)C1 [Example 312, (trans)-3-(3,4-dichlorophenyl)-3-((S)-hydroxy(pyrimidin-2-yl)methyl)-cyclobutanol] | – | – | 1.1 to 5 | >85 | >85 |
| OC1CC(c2cc(C(F)(F)F)ccn2)(C(O)c2ccccn2)C1 [Example 283, trans-3-[(S)-hydroxy(pyridin-2-yl)methyl]-3-[4-(trifluoromethyl)pyridin-2-yl]cyclobutanol] | – | – | 0.501 to 1 | >85 | >85 |
| OC(c1ccccn1)C1(C2CCCOC2)CCC1 (stereo not drawn) [Example 281, pyridin-2-yl[1-(tetrahydro-2H-pyran-3-yl)cyclobutyl]methanol] | – | – | 5.1 to 20 | >85 | 0.054 |
| NC1CCCC1C(O)C1(c2cccc(C(F)(F)F)c2)CCC1 (stereo not drawn) [Example 204, (2-aminocyclopentyl){1-[3-(trifluoromethyl)phenyl]cyclobutyl}methanol] | – | – | 1.1 to 5 | >85 | >85 |
| Cc1cccnc1[C@@H](O)C1(c2ccc(Cl)c(Cl)c2)CCC1 [Example 30, (S)-[1-(3,4-dichlorophenyl)cyclobutyl](3-methylpyridin-2-yl)methanol] | – | – | 1.1 to 5 | 1.5 | 0.98 |
| OC(c1ccccn1)C1(C2CCc3ccccc32)CCC1 (stereo not drawn) [Example 55, [1-(2,3-dihydro-1H-inden-1-yl)cyclobutyl](pyridin-2-yl)methanol] | – | – | 5.1 to 20 | 1.6 | 0.29 |
| OC(c1ccccn1)C1(c2ccc(F)c(Cl)c2)CC2(C1)OCCO2 (stereo not drawn) [Example 255, [2-(3-chloro-4-fluorophenyl)-5,8-dioxaspiro[3.4]oct-2-yl](pyridin-2-yl)-methanol] | – | – | 5.1 to 20 | 54 | <0.01 |
| O[C@@H](c1ncccn1)C1(c2ccc(Cl)c(Cl)c2)CCC1 [Example 40, (R)-[1-(3,4-dichlorophenyl)cyclobutyl](pyrimidin-2-yl)methanol] | – | – | 5.1 to 20 | 68 | 5.6 |
| OC(c1ccccn1)C1(c2ccc(OC(F)(F)F)cc2)CC2(C1)OCCO2 (stereo not drawn) [Example 202, pyridin-2-yl{2-[4-(trifluoromethoxy)phenyl]-5,8-dioxaspiro[3.4]oct-2-yl}-methanol] | – | – | 5.1 to 20 | 73 | <0.01 |
| OC(c1ccccn1)C1(c2ccc(C(F)(F)F)cc2)CNC1 (stereo not drawn) [Example 152, pyridin-2-yl{3-[4-(trifluoromethyl)phenyl]azetidin-3-yl}methanol] | – | – | 5.1 to 20 | >85 | >85 |
| OC(c1ccccn1)C1(c2ccccc2F)CCCO1 (stereo not drawn) [Example 103, (syn)-[2-(2-fluorophenyl)tetrahydrofuran-2-yl](pyridin-2-yl)methanol] | – | – | 1.1 to 5 | 73 | 0.012 |

Reference: US8772500B2, “TRPV3 modulators” (AbbVie Inc., priority 2011, dated 2014)
